Measured values from patent US11564904B2, “Gingko diterpene lactone composition” (Jiangsu Kanion Pharmaceutical Co., Ltd., priority 2017, dated 2023).

How the values were obtained:
[1] = test system: ADP-induced platelet aggregation; test: In vitro ADP-induced platelet aggregation rate of rabbits; assay type: cell-based, New Zealand white rabbits; details: compositions 9.26 μg/ml, nimodipine 0.05 μg/ml
Experimental: (§1) Rabbits were treated with procaine by local anesthesia, carotid arterial cannulation and bleeding. […] Incubation was performed for 5 min, then 10 μl of 146 μg/ml ADP and 10 μl of 10 μg/ml PAF were added in turn. […] Aggregation inhibition rate (%)=(maximum aggregation rate of blank control group−maximum aggregation rate of administration group)/maximum aggregation rate of blank control group×100%. The experimental data was expressed as x±s and analyzed by SPSS 17.0 statistical software. The comparison of means between multiple groups was performed by one-way analysis of variance. The comparison of sample means between two groups was performed by q test. P<0.05 was considered statistically significant.

[2] = test system: PAF-induced platelet aggregation; test: In vitro PAF-induced platelet aggregation rate of rabbits; assay type: cell-based, New Zealand white rabbits; details: compositions 9.26 μg/ml, nimodipine 0.05 μg/ml
Experimental: as §1

[3] = test system: right middle cerebral artery occlusion (MCAO) model; test: Focal cerebral ischemia-reperfusion injury (MCAO) model in rats; assay type: in vivo, SD rats; details: nimodipine 10.8 mg/kg, x ± s, n = 10
[4] = ADP 5.4 μg/ml, rabbit PRP, x ± s, n = 10
[5] = PAF 0.37 μg/ml, rabbit PRP, x ± s, n = 10
[6] = serum 24 hours after reperfusion, compositions 2.4 g·kg^−1 i.v.

SMILES: COCCOC(=O)C1=C(C)NC(C)=C(C(=O)OC(C)C)C1c1cccc([N+](=O)[O-])c1 (stereo not shown) [Nimodipine]
- Platelet aggregation rate 1 min [1, 4]: 26.46 ± 4.41
- Platelet aggregation rate 5 min [1, 4]: 38.33 ± 5.80
- Platelet aggregation rate Max [1, 4]: 41.85 ± 4.87
- inhibition at 0.05 µg/mL ([1]; Oryctolagus cuniculus, Platelet, ADP-induced, from maximum aggregation rate vs blank control): 16%
- inhibition at 0.05 µg/mL ([2]; Oryctolagus cuniculus, Platelet, PAF-induced, from maximum aggregation rate vs blank control): 27%
- Platelet aggregation rate 1 min [2, 5]: 27.13 ± 2.06
- Platelet aggregation rate 5 min [2, 5]: 42.18 ± 9.73
- Platelet aggregation rate Max [2, 5]: 48.08 ± 5.82
- Infarct size % ([3]; TTC staining 24 hours after re-perfusion, compositions 2.4 g·kg^−1 i.v.): 15.49 ± 5.94%
- BWC % ([3]; brain water content 24 hours after re-perfusion, compositions 2.4 g·kg^−1 i.v.): 68.36 ± 8.97%
- Neurologic score ([3]; rat MCAO, 3 h ischemia, after reperfusion, compositions 2.4 g·kg^−1 tail vein injection): 2.70 ± 0.95
- MDA/nmol* mg^−1 [3, 6]: 5.79 ± 1.75 nmol/mg
- SOD/U*mg^−1 [3, 6]: 26.94 ± 4.37 U*mg^−1
